Tests used:
pERK in NCI-H358 cells = experiment: Cell-based pERK HTRF assay (pERK inhibition in H358 cells); conditions: 30 min incubation
Procedure, shortened: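 NCI-H358 cells were seeded at 4×10^4 cells/well in RPMI/10% FBS, then treated next day for 30 min at 0.25% DMSO (9-point, 3-fold series from 75 μM). Lysates were read by HTRF (d2/Eu cryptate antibody pair, 615 nm emission) after 4–24 h at room temperature to give pERK IC50.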

[1] = target: T1, GDP-loaded KRAS4b (amino acids 1-169) G12C/C118S protein (Homo sapiens, UniProt P01116, C118S/G12C); experiment: Covalent cysteine 12 modification by MALDI-TOF MS, GDP-loaded KRAS G12C; assay type: binding; conditions: 15 minutes reaction time point
T1 construct: KRAS4b (amino acids 1-169) G12C/C118S protein; made in house
Procedure, shortened: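 Covalent adduct formation measured by linear-mode MALDI-TOF MS as modified peak height over summed peak heights, 15 min time point reported. Reactions: KRAS4b 1-169 G12C/C118S (1 μM, loaded with GppNHp, GTP or GDP) plus compound at 1:2.5 ratio, pH 7.3 HEPES/NaCl/MgCl2, room temperature.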

| Structure (SMILES) | IC50 (pERK in NCI-H358 cells; Homo sapiens, NCI-H358, 0.5 h) | GDP-KRAS G12C percent of modification [1] | IC50 (pERK in NCI-H358 cells) |
| --- | --- | --- | --- |
| C=CC(=O)N1CC[C@@H](N(C)c2nc(OC[C@@]34CCCN3C[C@H](F)C4)nc3c(F)c(-c4nc(N)cc(C)c4C(F)(F)F)c(Cl)cc23)[C@H]1C [Compound 78, 1-[(2R,3R)-3-[[7-[6-amino-4-methyl-3-(trifluoromethyl)-2-pyridyl]-6-chloro-8-fluoro-2-[[(2R,8S)-2-fluoro-1,2,3,5,6,7-hexahydropyrrolizin-8-yl]methoxy]quinazolin-4-yl]-methyl-amino]-2-methyl-pyrrolidin-1-yl]prop-2-en-1-one] | < 100 nM | A (percent of modification ≥70%) |  |
| C=CC(=O)N1CCC(N(C)c2nc(OC[C@@]34CCCN3C[C@H](F)C4)nc3c(F)c(-c4ccc(F)c5sc(N)c(C#N)c45)c(C(F)(F)F)cc23)[C@H]1CC (stereo partly shown) [Compound 3] | < 100 nM | C (10%≤percent of modification <50%) |  |
| C=CC(=O)N1CC[C@@H](N(C)c2nc(OC[C@@H]3C[C@@H](F)CN3C)nc3c(F)c(-c4ccc(F)c5sc(N)c(C#N)c45)c(Cl)cc23)[C@@H]1C [Compound 82] | < 100 nM | B (50≤percent of modification <70%) |  |
| C=CC(=O)N1CC2CCC(C1)N2c1nc(OC[C@@]23CCCN2C[C@H](F)C3)nc2c(F)c(-c3ccc(F)c4sc(N)c(C#N)c34)c(C(F)(F)F)cc12 [Compound 49] | < 100 nM | A (percent of modification ≥70%) |  |
| C=CC(=O)N1CC[C@@H](N(CC)c2nc(OC[C@@]34CCCN3C[C@H](F)C4)nc3c(F)c(-c4ccc(F)c5sc(N)c(C#N)c45)ccc23)[C@@H]1CC [Compound 50] | 100 to 1000 nM | A (percent of modification ≥70%) |  |
| C=CC(=O)N1CC[C@@H](N(CC)c2nc(OC[C@@]34CCCN3C[C@H](F)C4)nc3cc(-c4ccc(F)c5sc(N)c(C#N)c45)c(F)cc23)[C@H]1CC [Compound 76] | 100 to 1000 nM | A (percent of modification ≥70%) |  |
| C=CC(=O)N1CC[C@@H](N(C)c2nc(OC[C@@H]3CCCN3C)nc3c(F)c(-c4ccc(F)c5sc(N)c(C#N)c45)c(Cl)cc23)[C@@H]1C [Compound 83] | < 100 nM | A (percent of modification ≥70%) |  |
| C=CC(=O)N1CC[C@@H](N(C)c2nc(OC[C@@H]3C[C@@H](OC)CN3CC)nc3c(F)c(-c4ccc(F)c5sc(N)c(C#N)c45)c(Cl)cc23)[C@H]1C [Compound 99] | < 100 nM | A (percent of modification ≥70%) |  |
| C=CC(=O)N1CC[C@@H](N(C)c2nc(OC[C@@H]3C[C@@H](OC)CN3C)nc3c(F)c(-c4ccc(F)c5sc(N)c(C#N)c45)c(Cl)cc23)[C@@H]1C [Compound 79] | < 100 nM |  |  |
| C=CC(=O)N1CC[C@@H](N(CC)c2nc(OC[C@@H]3C[C@@H](F)CN3C)nc3c(F)c(-c4ccc(F)c5sc(N)c(C#N)c45)c(C(F)(F)F)cc23)[C@H]1C [Compound 52] |  | C (10%≤percent of modification <50%) | < 100 nM |
| C=CC(=O)N1CC[C@@H](N(C)c2nc(OC[C@@H]3C[C@@H](F)CN3CC)nc3c(F)c(-c4ccc(F)c5sc(N)c(C#N)c45)c(Cl)cc23)[C@H]1C [Compound 98] | 100 to 1000 nM | D (percent of modification <10%) |  |
| C=CC(=O)N1CC[C@@H](N(CC)c2nc(OC[C@@]34CCCN3C[C@H](F)C4)nc3c(F)c(-c4ccc(F)c5sc(N)c(C#N)c45)ccc23)[C@@H]1C [Compound 57] | < 100 nM | A (percent of modification ≥70%) |  |
| C=CC(=O)N1C[C@H]2C[C@@H]1CN2c1nc(OC[C@@]23CCCN2C[C@H](F)C3)nc2c(F)c(-c3ccc(F)c4sc(N)c(C#N)c34)c(C(F)(F)F)cc12 [Compound 37] | 100 to 1000 nM | C (10%≤percent of modification <50%) |  |
| C=CC(=O)N1CC[C@@H](N(C)c2nc(OC[C@@H]3CC4(CC4)CN3CC)nc3c(F)c(-c4ccc(F)c5sc(N)c(C#N)c45)c(Cl)cc23)[C@H]1C [Compound 97] | < 100 nM | A (percent of modification ≥70%) |  |
| C=CC(=O)N1CC[C@@H](N(CC)c2nc(OC[C@@]34CCCN3C[C@H](F)C4)nc3cc(-c4ccc(F)c5sc(N)c(C#N)c45)c(C#N)cc23)[C@@H]1C [Compound 56] | < 100 nM | A (percent of modification ≥70%) |  |
| C=CC(=O)N1CC[C@@H](N(C)c2nc(OC[C@@H]3CCCN3C)nc3c(F)c(-c4ccc(F)c5sc(N)c(C#N)c45)c(C(F)(F)F)cc23)[C@H]1C [Compound 67] |  | A (percent of modification ≥70%) | < 100 nM |
| C=CC(=O)N1CC[C@@H](N(C)c2nc(OC[C@@H]3CCCN3CC)nc3c(F)c(-c4ccc(F)c5sc(N)c(C#N)c45)c(C(F)(F)F)cc23)[C@H]1C [Compound 88] | < 100 nM | B (50≤percent of modification <70%) |  |

| Structure (SMILES) | IC50 (pERK in NCI-H358 cells; Homo sapiens, NCI-H358, 0.5 h) | GDP-KRAS G12C percent of modification [1] | IC50 (pERK in NCI-H358 cells) |
| --- | --- | --- | --- |
| C=CC(=O)N1CC[C@@H](N(CC)c2nc(OC[C@@]34CCCN3C[C@H](F)C4)nc3cc(-c4ccc(F)c5sc(N)c(C#N)c45)c(C#N)cc23)[C@@H]1CC [Compound 40] | 100 to 1000 nM | A (percent of modification ≥70%) |  |
| C=CC(=O)N1CC[C@@H](N(CC)c2nc(OC[C@@H]3C[C@@H](F)CN3C)nc3c(F)c(-c4ccc(F)c5sc(N)c(C#N)c45)c(Cl)cc23)[C@H]1C [Compound 60] | < 100 nM | C (10%≤percent of modification <50%) |  |
| C=CC(=O)N1CC[C@@H](N(C)c2nc(OC[C@@H]3CCCN3CC)nc3c(F)c(-c4ccc(F)c5sc(N)c(C#N)c45)c(Cl)cc23)[C@@H]1C [Compound 84] | < 100 nM |  |  |
| C=CC(=O)N1CC[C@@H](N(CC)c2nc(OC[C@@]34CCCN3C[C@H](F)C4)nc3c(F)c(-c4ccc(F)c5sc(N)c(C#N)c45)c(C(F)(F)F)cc23)[C@@H]1C [Compound 86] | < 100 nM | A (percent of modification ≥70%) |  |
| C=CC(=O)N1CC[C@@H](N(CC)c2nc(OC[C@@]34CCCN3C[C@H](F)C4)nc3c(F)c(-c4ccc(F)c5sc(N)c(C#N)c45)c(Cl)cc23)[C@@H]1C [Compound 77] | < 100 nM | A (percent of modification ≥70%) |  |
| C=CC(=O)N1CCC(N(C)c2nc(OC[C@@]34CCCN3C[C@H](F)C4)nc3c(F)c(-c4ccc(F)c5sc(N)c(C#N)c45)c(Cl)cc23)[C@H]1CC (stereo partly shown) [Compound 2] | < 100 nM | B (50≤percent of modification <70%) |  |
| C=CC(=O)N1CC2CC(C1)N2c1nc(OC[C@@]23CCCN2C[C@H](F)C3)nc2c(F)c(-c3ccc(F)c4sc(N)c(C#N)c34)c(C(F)(F)F)cc12 [Compound 46] | 100 to 1000 nM | C (10%≤percent of modification <50%) |  |
| C=CC(=O)N1CC[C@@H](N(C)c2nc(OC[C@@H]3C[C@@H](OC)CN3C)nc3c(F)c(-c4ccc(F)c5sc(N)c(C#N)c45)c(Cl)cc23)[C@H]1C [Compound 63, 4-(4-(((2R,3R)-1-acryloyl-2-methylpyrrolidin-3-yl)(methyl)amino)-6-chloro-8-fluoro-2-(((2S,4R)-4-methoxy-1-methylpyrrolidin-2-yl)methoxy)quinazolin-7-yl)-2-amino-7-fluorobenzo[b]thiophene-3-carbonitrile] | < 100 nM | A (percent of modification ≥70%) |  |
| C=CC(=O)N1CC[C@@H](N(C)c2nc(OC[C@@H]3C[C@@H](OC)CN3CC)nc3c(F)c(-c4ccc(F)c5sc(N)c(C#N)c45)c(Cl)cc23)[C@@H]1C [Compound 100] | < 100 nM | A (percent of modification ≥70%) |  |
| C=CC(=O)N1CC[C@@H](N(CC)c2nc(OC[C@@H]3CC4(CC4)CN3C)nc3c(F)c(-c4ccc(F)c5sc(N)c(C#N)c45)c(Cl)cc23)[C@H]1C [Compound 75] |  | A (percent of modification ≥70%) | < 100 nM |
| C=CC(=O)N1CC[C@@H](N(C)c2nc(OC[C@@H]3CC4(CC4)CN3CC)nc3c(F)c(-c4ccc(F)c5sc(N)c(C#N)c45)c(Cl)cc23)[C@@H]1C [Compound 92] | < 100 nM | A (percent of modification ≥70%) |  |
| C=CC(=O)N1CC[C@@H](N(CC)c2nc(OC[C@@]34CCCN3C[C@H](F)C4)nc3c(F)c(-c4ccc(F)c5sc(N)c(C#N)c45)c(C(F)(F)F)cc23)[C@H]1CC [Compound 39] | < 100 nM | C (10%≤percent of modification <50%) |  |
| C=CC(=O)N1CC[C@@H](N(C)c2nc(OC[C@@H]3CC4(CC4)CN3C)nc3c(F)c(-c4ccc(F)c5sc(N)c(C#N)c45)c(Cl)cc23)[C@H]1C [Compound 64] | < 100 nM |  |  |
| C=CC(=O)N1CC[C@@H](N(C)c2nc(OC[C@@H]3C[C@@H](F)CN3C)nc3c(F)c(-c4ccc(F)c5sc(N)c(C#N)c45)c(Cl)cc23)[C@H]1C [Compound 61] | < 100 nM |  |  |
| C=CC(=O)N1CC[C@@H](N(C)c2nc(OC[C@@H]3CCCN3C)nc3c(F)c(-c4ccc(F)c5sc(N)c(C#N)c45)c(Cl)cc23)[C@H]1C [Compound 59] |  |  | < 100 nM |
| C=CC(=O)N1CC[C@@H](N(CC)c2nc(OC[C@@H]3CCCN3C)nc3c(F)c(-c4ccc(F)c5sc(N)c(C#N)c45)c(C(F)(F)F)cc23)[C@H]1C [Compound 66] | < 100 nM |  |  |
| C=CC(=O)N1CC[C@@H](N(CC)c2nc(OC[C@@H]3CC4(CC4)CN3C)nc3c(F)c(-c4ccc(F)c5sc(N)c(C#N)c45)c(C(F)(F)F)cc23)[C@H]1C [Compound 65] | < 100 nM |  |  |

Source: patent US20260232666A1, “COMPOSITIONS AND METHODS FOR INHIBITION OF RAS” (TheRas, Inc., priority 2023, published 2026)
